Results on two compounds are retold here after patent publication US20140094366A1, “SYNERGISTIC WEED CONTROL FROM APPLICATIONS OF AMINOCYCLOPYRACHLOR AND FLUROXYPYR” (Dow AgroSciences LLC, priority 2012, published 2014).

Holding throughout (assay): Field trial, post-emergence foliar weed control
Holding throughout (type): in vivo

Experiment [1] concerns buckhorn plantain (Plantago lanceolata, PLALA). The conditions noted are these: 27 DAYS, 18 g ae/ha, alone. From the text:
(§1) The (a) aminocyclopyrachloror an agriculturally acceptable salt or ester thereof is mixed with or applied in combination with (b) fluoroxypyr or an agriculturally acceptable salt or ester thereof in an amount sufficient to induce a synergistic herbicidal effect. […] As described in the Herbicide Handbook of the Weed Science Society of America, Ninth Edition, 2007, p. 429, “‘synergism’ [is] an interaction of two or more factors such that the effect when combined is greater than the predicted effect based on the response to each factor applied separately.” Synergistic in the herbicide context can mean that the use of (a) and (b) as defined above results in an increased weed control effect compared to the weed control effects that are possible with the use of (a) or (b) alone. In some embodiments, the damage or injury to the undesired vegetation caused by the compositions and methods disclosed herein is evaluated using a scale from 0% to 100%, when compared with the untreated control vegetation, wherein 0% indicates no damage to the undesired vegetation and 100% indicates complete destruction of the undesired vegetation. […] 22 (1967)
(§2) Field trials were conducted with applications made to established grassland with naturally occurring weed populations, or applications were made to bare ground with naturally occurring weed populations. The target plants were treated with postemergence foliar applications after they had reached at least 3-4 leaves or at least 2-5 inches in height. All treatments were applied using a randomized complete block trial design, with 3-4 replications per treatment.
(§3) Treatments consisted of aminocyclopyrachlor in acid form and fluoroxypyr-meptyl, each in water and applied alone or in combination. Spray solutions were prepared using an appropriate amount of dilution to form a 2 liter (L) aqueous spray solution with active ingredients in single and two way combinations. Formulated compounds were applied to the plant material with a backpack sprayer equipped with 8003 or Turbojet nozzles calibrated to deliver 187 liters per hectare (L/ha) to 400 L/ha at a spray height of 18-20 inches (43-50 centimeters (cm)) above average plant canopy or ground.
(§4) The treated plants were shepherd's purse (Capsella bursa-pastoris, CAPBP), common fiddleneck (Amsinckia menziesii, AMSIN), wild oat (Avena fatua, AVEFA), cat's ear dandelion (Hypochaeris radicata, HRYRA), yellow star thistle (Centaurea solstitialis, CENSO), common guava (Psidium guajava, PSIGU), buckhorn plantain (Plantago lanceolata, PLALA), and calvary clover (Medicago arabica, MEDAB). The treated plots and control plots were rated blind at various intervals after application. Ratings were based on a scale of 0-100%, as discussed above, wherein 0% indicates no damage to the undesired vegetation and 100% indicates complete destruction of the undesired vegetation.
(§5) Colby's equation was used to determine the herbicidal effects expected from the mixtures, as described above. The results were measured at 11 days, 17 days, 24 days, 27 days, 37 days, 70 days, 76 days, and 88 days after the first application of the compositions. […] The herbicide tank mix combinations tested, application rates and ratios employed, plant species tested, and results are given below.

Experiment [2] has as its system calvary clover (Medicago arabica, MEDAB). The conditions noted are these: 27 DAYS, alone.
From the text: as §1, §2, §3, §4, §5

Experiment [3] concerns cat's ear dandelion (Hypochaeris radicata, HRYRA). To be noted: alone.
From the text: as §1, §2, §3, §4, §5

In experiment [4] the test system is common fiddleneck (Amsinckia menziesii, AMSIN). The conditions noted are these: alone; for Aminocyclopyrachlor Mean % weed control: 18 g ae/ha; for Fluroxypyr-meptyl Mean % weed control: 70 g ae/ha.
From the text: as §1, §2, §3, §4, §5

Experiment [5] relates to common guava (Psidium guajava, PSIGU). The conditions noted are these: alone.
From the text: as §1, §2, §3, §4, §5

In experiment [6] the test system is shepherd's purse (Capsella bursa-pastoris, CAPBP). To be noted: alone.
From the text: as §1, §2, §3, §4, §5

The test system of experiment [7] is wild oat (Avena fatua, AVEFA). To be noted: 11 DAYS, alone.
From the text: as §1, §2, §3, §4, §5

The subject of experiment [8] is yellow star thistle (Centaurea solstitialis, CENSO). To be noted: 37 DAYS, alone.
From the text: as §1, §2, §3, §4, §5

Consider `Nc1nc(C2CC2)nc(C(=O)O)c1Cl` [Aminocyclopyrachlor, 6-amino-5-chloro-2-cyclopropylpyrimidine-4-carboxylic acid], for which the “Aminocyclopyrachlor Mean % weed control” value in experiment [1] is 22.5%; in experiment [2] (18 g ae/ha), 27.5%; in experiment [2] (35 g ae/ha) it was 47.5%; in experiment [3] (11 DAYS, 35 g ae/ha) it was 1.75%; in experiment [3] (37 DAYS, 18 g ae/ha), 28.75%; in experiment [3] (70 DAYS, 18 g ae/ha), 36.25%. In addition, the “Aminocyclopyrachlor Mean % weed control” value in experiment [4] (17 DAYS) was 0%; in experiment [4] (24 DAYS), 0%; in experiment [5] (76 DAYS, 50 g ae/ha), 7.5%; in experiment [5] (76 DAYS, 150 g ae/ha) it was 48.3%; in experiment [5] (88 DAYS, 50 g ae/ha) it was 7.5%; in experiment [5] (88 DAYS, 150 g ae/ha), 57.5%. Also, the “Aminocyclopyrachlor Mean % weed control” value in experiment [6] (17 DAYS, 18 g ae/ha) is listed as 23.33%; in experiment [6] (17 DAYS, 35 g ae/ha), 50%; in experiment [6] (24 DAYS, 35 g ae/ha), 50%; in experiment [7] (35 g ae/ha), 0%; in experiment [8] (18 g ae/ha), 57.5%.
`CCCCCCC(C)OC(=O)COc1nc(F)c(Cl)c(N)c1Cl` (stereo not drawn) [Fluroxypyr-meptyl]: the “Fluroxypyr-meptyl Mean % weed control” value in experiment [1] came out at 10%; in experiment [2] (18 g ae/ha), 11.25%; in experiment [2] (35 g ae/ha), 7.5%; in experiment [2] (70 g ae/ha), 47.5%; in experiment [3] (11 DAYS, 70 g ae/ha), 0%; in experiment [3] (37 DAYS, 18 g ae/ha) it was 0.5%. Further, the “Fluroxypyr-meptyl Mean % weed control” value in experiment [3] (37 DAYS, 70 g ae/ha) was found to be 3%; in experiment [3] (70 DAYS, 70 g ae/ha), 1.75%; in experiment [4] (17 DAYS) it was 3.33%; in experiment [4] (24 DAYS), 3.33%; in experiment [5] (76 DAYS, 80 g ae/ha), 4.8%; in experiment [5] (76 DAYS, 240 g ae/ha), 16.3%. Besides, the “Fluroxypyr-meptyl Mean % weed control” value is 4.8% in experiment [5] (88 DAYS, 80 g ae/ha); 16.3% in experiment [5] (88 DAYS, 240 g ae/ha); 6.67% in experiment [6] (17 DAYS, 35 g ae/ha); 13.33% in experiment [6] (17 DAYS, 70 g ae/ha); 8.33% in experiment [6] (24 DAYS, 70 g ae/ha); 1% in experiment [7] (70 g ae/ha). Also, in experiment [8] (70 g ae/ha), the “Fluroxypyr-meptyl Mean % weed control” value is on record as 22.5%.
